Laboratory results from BigSolDB 2.1.

NNC(=O)c1ccncc1
solubility (mole fraction)
Details | 301 K | 303 K | 308 K | 311 K | 313 K
in acetone | 0.00946 | 0.0104 | 0.0136 | 0.016 | 0.0187
in ethanol | 0.00545 | 0.00579 | 0.00717 | 0.00816 | 0.00887
in ethyl acetate | 0.00159 | 0.00172 | 0.00206 | 0.00225 | 0.00251
in methanol | 0.0107 | 0.0114 | 0.0137 | 0.0154 | 0.0163
